From ChEMBL document CHEMBL1909046, “DrugMatrix in vitro pharmacology data”

Columns and labels:
[1] = molecular target: T1, Alpha-1D adrenergic receptor (Homo sapiens, UniProt P25100); format: cell membranes, HEK293, Membrane; details: for Ki: read-out: Ki; for all read-outs here: in other assays of this panel Not Active means under 50% inhibition at 10 µM
T1 sequence (P25100 whole entry): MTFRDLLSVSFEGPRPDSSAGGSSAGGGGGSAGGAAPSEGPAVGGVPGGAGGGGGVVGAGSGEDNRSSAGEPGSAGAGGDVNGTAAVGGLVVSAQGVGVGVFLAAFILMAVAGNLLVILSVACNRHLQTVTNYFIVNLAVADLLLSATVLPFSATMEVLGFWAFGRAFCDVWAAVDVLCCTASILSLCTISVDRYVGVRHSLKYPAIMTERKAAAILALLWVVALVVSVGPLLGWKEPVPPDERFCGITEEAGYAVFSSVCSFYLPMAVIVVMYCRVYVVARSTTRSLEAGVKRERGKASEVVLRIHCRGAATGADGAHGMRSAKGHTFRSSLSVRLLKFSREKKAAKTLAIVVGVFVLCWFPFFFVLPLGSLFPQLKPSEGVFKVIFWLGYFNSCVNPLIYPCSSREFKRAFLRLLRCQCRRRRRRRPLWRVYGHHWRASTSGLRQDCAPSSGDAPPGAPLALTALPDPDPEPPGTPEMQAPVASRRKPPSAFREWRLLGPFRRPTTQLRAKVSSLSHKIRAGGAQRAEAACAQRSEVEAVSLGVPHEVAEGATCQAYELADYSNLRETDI

[2] = molecular target: Beta-1 adrenergic receptor (Homo sapiens, UniProt P08588); test: DRUGMATRIX: Adrenergic beta1 radioligand binding (ligand: [125I] Cyanopindolol); format: cell membranes, CHO-K1, Membrane; details: cho-k1; Not Active = under 50% inhibition at 10 µM
Beta-1 adrenergic receptor, sequence (P08588 whole entry): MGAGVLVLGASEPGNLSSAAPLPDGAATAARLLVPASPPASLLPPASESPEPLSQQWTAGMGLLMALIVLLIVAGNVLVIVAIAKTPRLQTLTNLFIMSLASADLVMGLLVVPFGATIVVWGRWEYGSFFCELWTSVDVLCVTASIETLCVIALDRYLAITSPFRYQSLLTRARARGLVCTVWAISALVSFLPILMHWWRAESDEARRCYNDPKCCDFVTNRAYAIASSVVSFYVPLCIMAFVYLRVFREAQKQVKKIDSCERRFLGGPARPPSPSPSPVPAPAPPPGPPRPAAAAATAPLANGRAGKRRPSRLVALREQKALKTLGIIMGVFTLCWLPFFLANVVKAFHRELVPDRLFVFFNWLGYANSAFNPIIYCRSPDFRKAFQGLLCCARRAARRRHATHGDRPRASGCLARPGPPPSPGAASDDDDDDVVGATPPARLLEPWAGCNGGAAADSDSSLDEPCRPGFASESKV

[3] = molecular target: Beta-3 adrenergic receptor (Homo sapiens, UniProt P13945); test: DRUGMATRIX: Adrenergic beta3 radioligand binding (ligand: [125I] Cyanopindolol); format: cell membranes, HEK293, Membrane; details: hek293; Not Active = under 50% inhibition at 10 µM
Beta-3 adrenergic receptor, sequence (P13945 whole entry): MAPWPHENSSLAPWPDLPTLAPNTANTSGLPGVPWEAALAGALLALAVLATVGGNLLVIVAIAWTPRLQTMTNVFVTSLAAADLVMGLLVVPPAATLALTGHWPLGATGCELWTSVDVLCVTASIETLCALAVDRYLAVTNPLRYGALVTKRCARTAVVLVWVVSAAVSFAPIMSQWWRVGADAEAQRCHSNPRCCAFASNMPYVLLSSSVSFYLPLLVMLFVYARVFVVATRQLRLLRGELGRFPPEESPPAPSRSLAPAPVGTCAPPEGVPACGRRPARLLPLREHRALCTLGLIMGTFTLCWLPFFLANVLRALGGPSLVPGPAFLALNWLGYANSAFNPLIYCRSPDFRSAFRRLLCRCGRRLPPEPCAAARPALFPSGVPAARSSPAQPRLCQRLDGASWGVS

[4] = molecular target: Aldo-keto reductase family 1 member B1 (Rattus norvegicus, UniProt P07943); format: tissue-based, Lens of camera-type eye;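 note: inhibition of aldose reductase enzyme activity, measured with DL-glyceraldehyde as the substrate; in other assays of this panel Not Active means under 50% inhibition at 10 µM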
[5] = DRUGMATRIX: Calcium Channel Type L, Benzothiazepine radioligand binding (ligand: [3H] Diltiazem); format: cell membranes, Rattus norvegicus, Wistar, Brain, Membrane; details: Not Active = under 50% inhibition at 10 µM
[6] = DRUGMATRIX: Serotonin (5-Hydroxytryptamine) 5-HT3 radioligand binding (ligand: [3H] GR-65630); format: cell membranes, Membrane; details: hek293; Not Active = under 50% inhibition at 10 µM
[7] = molecular target: 5-hydroxytryptamine receptor 4 (Cavia porcellus, UniProt O70528); format: cell membranes, Dunkin-Hartley, Striatum, Membrane; note: in other assays of this panel Not Active means under 50% inhibition at 10 µM
5-hydroxytryptamine receptor 4, sequence (O70528 whole entry): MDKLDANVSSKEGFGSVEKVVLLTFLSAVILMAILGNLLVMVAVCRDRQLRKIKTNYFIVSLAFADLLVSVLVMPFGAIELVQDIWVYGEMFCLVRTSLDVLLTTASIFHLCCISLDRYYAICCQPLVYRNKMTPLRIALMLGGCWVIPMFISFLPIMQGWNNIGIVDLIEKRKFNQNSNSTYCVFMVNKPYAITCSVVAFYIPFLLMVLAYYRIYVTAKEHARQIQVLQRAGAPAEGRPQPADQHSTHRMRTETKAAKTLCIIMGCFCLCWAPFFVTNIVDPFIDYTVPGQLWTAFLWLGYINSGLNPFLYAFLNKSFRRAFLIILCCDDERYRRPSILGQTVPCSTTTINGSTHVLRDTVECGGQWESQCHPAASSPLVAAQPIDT

[8] = DRUGMATRIX: Tumor Necrosis Factor (TNF), Non-Selective radioligand binding (ligand: [125I] TNF-alpha); format: cell membranes, Membrane; details: u-937; Not Active = under 50% inhibition at 10 µM
[9] = DRUGMATRIX: Calcium Channel Type L, Phenylalkylamine radioligand binding (ligand: [3H] (-)-Desmethoxyverapamil (D-888)); format: cell membranes, Rattus norvegicus, Wistar, Brain, Membrane; details: Not Active = under 50% inhibition at 10 µM
[10] = molecular target: T2, Cholecystokinin receptor type A (Homo sapiens, UniProt P32238); format: cell membranes, Membrane; details: 1321-n1; note: in other assays of this panel Not Active means under 50% inhibition at 10 µM
T2 sequence (P32238 whole entry): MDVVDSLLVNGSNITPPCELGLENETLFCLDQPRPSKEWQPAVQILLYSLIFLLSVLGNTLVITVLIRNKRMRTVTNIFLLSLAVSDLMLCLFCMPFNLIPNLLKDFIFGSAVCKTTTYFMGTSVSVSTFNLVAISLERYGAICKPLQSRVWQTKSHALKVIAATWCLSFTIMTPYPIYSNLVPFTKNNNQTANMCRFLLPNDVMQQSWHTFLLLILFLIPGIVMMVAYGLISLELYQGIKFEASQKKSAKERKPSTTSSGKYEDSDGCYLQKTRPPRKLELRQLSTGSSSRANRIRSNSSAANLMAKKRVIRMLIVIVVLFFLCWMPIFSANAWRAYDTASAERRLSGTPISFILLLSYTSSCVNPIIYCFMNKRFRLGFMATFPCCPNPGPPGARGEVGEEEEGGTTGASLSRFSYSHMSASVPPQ

[11] = DRUGMATRIX: GABAA, Muscimol, Central radioligand binding (ligand: [3H] Muscimol); format: cell membranes, Rattus norvegicus, Wistar, Brain, Membrane; details: Not Active = under 50% inhibition at 10 µM
[12] = DRUGMATRIX: GABAA, Flunitrazepam, Central radioligand binding (ligand: [3H] Flunitrazepam); format: cell membranes, Rattus norvegicus, Wistar, Brain, Membrane; details: Not Active = under 50% inhibition at 10 µM
[13] = DRUGMATRIX: Imidazoline I2, Central radioligand binding (ligand: [3H] Idazoxan); format: cell membranes, Rattus norvegicus, Wistar, Cerebral cortex, Membrane; details: Not Active = under 50% inhibition at 10 µM
[14] = molecular target: Insulin receptor (Rattus norvegicus, UniProt P15127); format: cell membranes, Wistar, Liver, Membrane; note: in other assays of this panel Not Active means under 50% inhibition at 10 µM
Insulin receptor, sequence (P15127 27-759 limits assumed): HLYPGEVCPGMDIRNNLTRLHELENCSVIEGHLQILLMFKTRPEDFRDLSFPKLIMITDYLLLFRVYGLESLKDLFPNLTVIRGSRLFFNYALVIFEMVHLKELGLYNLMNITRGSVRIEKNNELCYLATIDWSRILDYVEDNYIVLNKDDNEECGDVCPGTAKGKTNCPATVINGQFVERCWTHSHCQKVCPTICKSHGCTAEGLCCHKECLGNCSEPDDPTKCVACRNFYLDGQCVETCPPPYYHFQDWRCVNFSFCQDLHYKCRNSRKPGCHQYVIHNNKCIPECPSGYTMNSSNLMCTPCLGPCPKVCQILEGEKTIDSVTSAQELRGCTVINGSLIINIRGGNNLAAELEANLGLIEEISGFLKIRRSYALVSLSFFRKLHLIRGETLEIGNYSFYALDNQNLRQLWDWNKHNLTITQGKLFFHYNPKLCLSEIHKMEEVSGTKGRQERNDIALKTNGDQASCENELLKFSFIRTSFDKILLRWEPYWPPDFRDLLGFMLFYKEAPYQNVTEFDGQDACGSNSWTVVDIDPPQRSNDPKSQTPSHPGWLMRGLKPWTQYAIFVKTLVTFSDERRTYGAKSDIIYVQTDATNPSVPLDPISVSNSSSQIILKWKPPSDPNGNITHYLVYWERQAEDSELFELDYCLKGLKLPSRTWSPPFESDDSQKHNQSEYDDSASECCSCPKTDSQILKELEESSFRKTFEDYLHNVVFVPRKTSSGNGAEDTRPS
Insulin receptor, sequence (P15127 764-1383 limits assumed): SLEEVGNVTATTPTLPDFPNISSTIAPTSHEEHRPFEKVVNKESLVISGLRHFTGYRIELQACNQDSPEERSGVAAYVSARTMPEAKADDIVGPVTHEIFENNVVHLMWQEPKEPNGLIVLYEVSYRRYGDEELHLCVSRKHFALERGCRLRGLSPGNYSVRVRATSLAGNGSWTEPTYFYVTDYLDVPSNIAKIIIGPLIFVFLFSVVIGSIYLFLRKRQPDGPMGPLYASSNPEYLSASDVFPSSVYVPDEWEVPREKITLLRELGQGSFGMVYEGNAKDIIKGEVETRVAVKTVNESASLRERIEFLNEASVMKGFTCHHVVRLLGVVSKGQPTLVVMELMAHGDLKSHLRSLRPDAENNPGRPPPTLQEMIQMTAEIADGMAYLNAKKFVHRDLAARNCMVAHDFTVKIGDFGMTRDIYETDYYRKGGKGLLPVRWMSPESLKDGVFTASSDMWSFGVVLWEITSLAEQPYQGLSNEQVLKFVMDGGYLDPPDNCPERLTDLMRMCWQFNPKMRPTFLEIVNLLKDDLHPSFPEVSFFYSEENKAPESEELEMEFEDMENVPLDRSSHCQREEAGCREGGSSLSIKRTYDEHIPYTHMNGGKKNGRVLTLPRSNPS

[15] = molecular target: Melanocortin receptor 4 (Homo sapiens, UniProt P32245); format: cell membranes, Membrane; details: hek293; note: in other assays of this panel Not Active means under 50% inhibition at 10 µM
Melanocortin receptor 4, sequence (P32245 whole entry): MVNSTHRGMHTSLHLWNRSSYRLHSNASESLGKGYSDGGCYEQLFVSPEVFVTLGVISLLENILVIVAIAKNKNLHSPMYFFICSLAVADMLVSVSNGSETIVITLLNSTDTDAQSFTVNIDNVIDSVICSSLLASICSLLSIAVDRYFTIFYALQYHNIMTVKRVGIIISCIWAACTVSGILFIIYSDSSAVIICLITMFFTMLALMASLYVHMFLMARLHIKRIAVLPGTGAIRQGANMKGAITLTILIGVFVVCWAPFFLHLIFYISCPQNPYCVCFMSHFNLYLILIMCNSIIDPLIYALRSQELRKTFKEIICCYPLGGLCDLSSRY

[16] = molecular target: Kappa-type opioid receptor (Homo sapiens, UniProt P41145); test: DRUGMATRIX: Opiate kappa (OP2, KOP) radioligand binding (ligand: [3H] Diprenorphine); format: cell membranes, HEK293, Membrane; details: hek293; Not Active = under 50% inhibition at 10 µM
Kappa-type opioid receptor, sequence (P41145 whole entry): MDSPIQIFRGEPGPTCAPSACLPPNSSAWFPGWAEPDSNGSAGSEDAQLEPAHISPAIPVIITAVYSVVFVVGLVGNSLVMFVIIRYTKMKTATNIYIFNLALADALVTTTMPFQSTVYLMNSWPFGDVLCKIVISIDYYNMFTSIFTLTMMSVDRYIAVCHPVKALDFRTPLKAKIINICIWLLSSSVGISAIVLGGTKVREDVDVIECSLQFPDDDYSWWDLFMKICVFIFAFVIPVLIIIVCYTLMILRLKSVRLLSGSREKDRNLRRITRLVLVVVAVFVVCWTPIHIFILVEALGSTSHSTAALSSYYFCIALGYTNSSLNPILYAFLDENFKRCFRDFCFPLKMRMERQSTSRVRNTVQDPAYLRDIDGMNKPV

[17] = molecular target: Mu-type opioid receptor (Homo sapiens, UniProt P35372); test: DRUGMATRIX: Opiate mu (OP3, MOP) radioligand binding (ligand: [3H] Diprenorphine); format: cell membranes, CHO-K1, Membrane; details: cho-k1; Not Active = under 50% inhibition at 10 µM
Mu-type opioid receptor, sequence (P35372 whole entry): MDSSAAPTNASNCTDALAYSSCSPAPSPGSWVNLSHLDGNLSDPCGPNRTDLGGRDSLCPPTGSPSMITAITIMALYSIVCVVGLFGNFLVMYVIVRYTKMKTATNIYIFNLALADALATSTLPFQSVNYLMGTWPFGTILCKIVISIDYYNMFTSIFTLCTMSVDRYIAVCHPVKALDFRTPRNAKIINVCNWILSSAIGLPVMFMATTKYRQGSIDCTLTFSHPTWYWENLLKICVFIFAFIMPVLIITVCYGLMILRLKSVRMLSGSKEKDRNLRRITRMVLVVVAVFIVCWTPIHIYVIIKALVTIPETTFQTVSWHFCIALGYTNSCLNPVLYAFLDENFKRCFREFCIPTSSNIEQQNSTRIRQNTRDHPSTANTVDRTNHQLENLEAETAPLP

[18] = molecular target: T3, 5-hydroxytryptamine receptor 1A (Rattus norvegicus, UniProt P19327); format: cell membranes, CHO-K1, Membrane; details: for Ki: read-out: Ki
T3 sequence (P19327 whole entry): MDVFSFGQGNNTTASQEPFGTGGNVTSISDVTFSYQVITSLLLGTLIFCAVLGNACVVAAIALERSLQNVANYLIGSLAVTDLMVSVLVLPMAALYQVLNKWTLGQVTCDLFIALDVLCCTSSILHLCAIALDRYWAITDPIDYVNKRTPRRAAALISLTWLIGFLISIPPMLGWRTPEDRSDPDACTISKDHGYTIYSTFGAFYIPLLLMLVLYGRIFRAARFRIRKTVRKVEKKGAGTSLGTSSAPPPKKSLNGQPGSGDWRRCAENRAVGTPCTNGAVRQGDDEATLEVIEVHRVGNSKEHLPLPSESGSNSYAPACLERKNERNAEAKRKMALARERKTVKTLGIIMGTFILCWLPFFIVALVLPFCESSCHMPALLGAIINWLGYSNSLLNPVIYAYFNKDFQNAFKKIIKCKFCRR

[19] = molecular target: 5-hydroxytryptamine receptor 1B (Rattus norvegicus, UniProt P28564); format: cell membranes, Wistar, Cerebral cortex, Membrane; note: in other assays of this panel Not Active means under 50% inhibition at 10 µM
5-hydroxytryptamine receptor 1B, sequence (P28564 whole entry): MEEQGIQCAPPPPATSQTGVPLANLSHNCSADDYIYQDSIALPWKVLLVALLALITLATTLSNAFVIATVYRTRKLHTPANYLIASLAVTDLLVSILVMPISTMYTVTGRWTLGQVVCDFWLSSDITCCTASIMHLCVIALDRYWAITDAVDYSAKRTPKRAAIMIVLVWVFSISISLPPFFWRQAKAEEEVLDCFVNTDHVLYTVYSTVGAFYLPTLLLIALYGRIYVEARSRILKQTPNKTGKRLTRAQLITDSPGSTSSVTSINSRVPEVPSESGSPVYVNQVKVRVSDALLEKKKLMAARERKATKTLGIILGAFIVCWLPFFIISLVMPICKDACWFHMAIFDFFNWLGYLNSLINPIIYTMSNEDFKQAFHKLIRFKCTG

[20] = molecular target: Sigma non-opioid intracellular receptor 1 (Homo sapiens, UniProt Q99720); test: DRUGMATRIX: Sigma1 radioligand binding (ligand: [3H] Haloperidol); format: cell membranes, Jurkat, Membrane; details: Not Active = under 50% inhibition at 10 µM; for Ki: read-out: Ki
Sigma non-opioid intracellular receptor 1, sequence (Q99720 whole entry): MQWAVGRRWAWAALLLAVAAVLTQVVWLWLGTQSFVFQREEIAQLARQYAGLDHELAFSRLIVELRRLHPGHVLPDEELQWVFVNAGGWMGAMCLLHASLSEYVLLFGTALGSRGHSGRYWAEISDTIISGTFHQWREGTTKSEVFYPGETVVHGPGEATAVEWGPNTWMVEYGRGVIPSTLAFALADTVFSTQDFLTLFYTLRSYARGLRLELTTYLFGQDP

SMILES | IC50 [3] | IC50 [4] | IC50 [5] | Ki [5] | IC50 [6] | Ki [6] | IC50 [7] | IC50 [8] | Ki [8] | IC50 [9] | Ki [9] | IC50 [10] | IC50 [11] | Ki [11] | IC50 [12] | IC50 [14] | IC50 [15] | IC50 [16] | IC50 [17] | IC50 [19] | further results
CC(=O)[C@H]1CC[C@H]2[C@@H]3CCC4=CC(=O)CC[C@]4(C)[C@H]3CC[C@]12C [PROGESTERONE] | Not Active | Not Active | Not Active | Not Active | Not Active | Not Active | Not Active | Not Active | Not Active | Not Active | Not Active | Not Active | Not Active | Not Active | Not Active | Not Active | Not Active | Not Active | Not Active | Not Active | IC50 ([1]; hek293): Not Active; IC50 [2]: Not Active; Ki [12]: Not Active; IC50 [13]: Not Active; Ki [13]: Not Active; IC50 ([18]; cho-k1): Not Active
CN(C)CCCN1c2ccccc2CCc2ccc(Cl)cc21 [CLOMIPRAMINE] | Not Active | Not Active | – | – | – | – | Not Active | – | – | – | – | Not Active | – | – | – | Not Active | Not Active | Not Active | Not Active | Not Active | IC50 ([1]; read-out: IC50): 180 nM; Ki [1]: 88 nM; IC50 [2]: Not Active; IC50 ([20]; read-out: IC50): 1360 nM; Ki [20]: 572 nM; IC50 ([18]; cho-k1): Not Active
CSc1ccc2c(c1)N(CCC1CCCCN1C)c1ccccc1S2 (configuration not stated) [THIORIDAZINE] | Not Active | Not Active | – | – | – | – | Not Active | – | – | – | – | Not Active | – | – | – | Not Active | Not Active | – | Not Active | Not Active | IC50 ([1]; read-out: IC50): 5.89 nM; Ki [1]: 2.9 nM; IC50 [2]: Not Active; IC50 ([20]; read-out: IC50): 363 nM; Ki [20]: 153 nM; IC50 ([18]; read-out: IC50): 60 nM; Ki [18]: 34 nM
COC(=O)[C@@H]1[C@H]2C[C@H]3c4[nH]c5ccccc5c4CCN3C[C@@H]2CC[C@@H]1O [YOHIMBINE] | Not Active | Not Active | Not Active | Not Active | Not Active | Not Active | Not Active | Not Active | Not Active | Not Active | Not Active | Not Active | Not Active | Not Active | Not Active | Not Active | Not Active | Not Active | Not Active | Not Active | IC50 [2]: Not Active; IC50 ([20]; jurkat): Not Active; Ki [12]: Not Active; IC50 ([13]; read-out: IC50): 157 nM; Ki ([13]; read-out: Ki): 105 nM
CC(C)(C)NCC(O)c1ccc(O)c(CO)c1 (configuration not stated) [ALBUTEROL] | Not Active | Not Active | Not Active | Not Active | Not Active | Not Active | Not Active | Not Active | Not Active | Not Active | Not Active | Not Active | Not Active | Not Active | Not Active | Not Active | Not Active | Not Active | Not Active | Not Active | IC50 ([1]; hek293): Not Active; IC50 ([20]; jurkat): Not Active; Ki [12]: Not Active; IC50 [13]: Not Active; Ki [13]: Not Active; IC50 ([18]; cho-k1): Not Active
CC(CCc1ccccc1)NCC(O)c1ccc(O)c(C(N)=O)c1 (configuration not stated) [LABETALOL] | Not Active | Not Active | Not Active | Not Active | Not Active | Not Active | Not Active | Not Active | Not Active | Not Active | Not Active | Not Active | Not Active | Not Active | Not Active | Not Active | Not Active | Not Active | Not Active | Not Active | IC50 ([1]; read-out: IC50): 521 nM; Ki [1]: 256 nM; IC50 ([20]; read-out: IC50): 1810 nM; Ki [20]: 763 nM; Ki [12]: Not Active; IC50 [13]: Not Active; Ki [13]: Not Active; IC50 ([18]; read-out: IC50): 393 nM; Ki [18]: 225 nM
CC(C)(C)NCC(O)c1cc(O)cc(O)c1 (configuration not stated) [TERBUTALINE] | Not Active | Not Active | Not Active | Not Active | Not Active | Not Active | Not Active | Not Active | Not Active | Not Active | Not Active | Not Active | Not Active | Not Active | Not Active | Not Active | Not Active | Not Active | Not Active | Not Active | IC50 ([1]; hek293): Not Active; IC50 ([20]; jurkat): Not Active; Ki [12]: Not Active; IC50 [13]: Not Active; Ki [13]: Not Active; IC50 ([18]; cho-k1): Not Active
